Experimental data as given in US10456451B2, “Protease-resistant mutants of stromal cell derived factor-1 in the repair of tissue damage” (Mesoblast International Sàrl, priority 2010, dated 2019).
* marks the point of attachment. MCA = fluorescent 7-methoxycoumarin-3-carboxylic acid residue, COc1ccc2cc(C(=O)*)c(=O)oc2c1; Dpn = quencher lysine-dinitrophenol residue

Tests used:
[1] = molecular target: T1, MMP-2 (Homo sapiens, UniProt P08253); test: MMP-2 cleavage of FRET-based N-terminal 8 amino acid peptides; type: biochemical; conditions: for amount of peptide cleaved by MMP-2: after 4 hours, n=4; for initial cleavage rate by MMP-2: calculated 60 minutes after addition of MMP-2, n=4
T1 construct: purchased R&D Systems
T1 sequence (P08253 110-660): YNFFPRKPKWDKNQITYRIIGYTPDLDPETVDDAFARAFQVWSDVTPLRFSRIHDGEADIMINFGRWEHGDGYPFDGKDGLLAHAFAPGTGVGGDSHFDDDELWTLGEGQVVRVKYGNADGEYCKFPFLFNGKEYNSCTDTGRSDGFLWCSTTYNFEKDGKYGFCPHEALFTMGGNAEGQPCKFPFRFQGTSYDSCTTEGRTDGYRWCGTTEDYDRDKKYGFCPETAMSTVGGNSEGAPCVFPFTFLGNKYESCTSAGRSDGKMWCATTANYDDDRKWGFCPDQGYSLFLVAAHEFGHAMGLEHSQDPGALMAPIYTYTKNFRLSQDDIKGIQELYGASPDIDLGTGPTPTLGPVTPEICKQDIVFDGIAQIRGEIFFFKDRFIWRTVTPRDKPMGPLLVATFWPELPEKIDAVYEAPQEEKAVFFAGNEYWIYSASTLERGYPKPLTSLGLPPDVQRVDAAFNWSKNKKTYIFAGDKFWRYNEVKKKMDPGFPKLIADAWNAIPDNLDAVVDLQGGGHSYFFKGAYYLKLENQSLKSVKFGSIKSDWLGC
Experimental: All peptides were synthesized with a fluorescent 7-methoxycoumarin-3-carboxylic acid (MCA) residue at the N-terminus and a quencher lysine-dinitrophenol (Dpn) residue at the C-terminus. […] Enzymatic cleavage of these peptides separated MCA from Dpn, resulting in an increased fluorescence. Peptides (10 μM) were then incubated with activated MMP-2 (Table 1), leukocyte elastase (Table 2), or cathepsin G (Table 3) (1.4 nM) in TNCB buffer (50 mM Tris, pH 7.5, with 10 mM calcium chloride, 150 mM sodium chloride, and 0.05% BRIJ 35) or phosphate-buffered saline (PBS) at 21° C. Fluorescence was measured at 340 nm excitation and 405 nm emission wavelengths at different time points with a Victor Wallace II plate reader.
(§1) Human recombinant MMP-2 (R&D Systems) was activated for 1 hour with 4-aminophenylmercuric acetate (APMA, 1 mM) at 37° C. 4 μg of Sumo-SSDF-1-RAD or Sumo-SSDF-1(S4V)-RAD was incubated for 1 hour to 48 hours at 21° C. with 50 ng of activated MMP-2 in TCNB buffer (50 mM Tris, pH 7.5, 10 mM CaCl2, 150 mM NaCl, 0.05% Brij-35). Sample loading buffer (Invitrogen) and 2-mercaptoethanol (0.5 M, final concentration) were added, and samples were boiled for 5 minutes and run on a 10% Bis-Tris gel. Proteins used for this experiment were obtained after cation-exchange chromatography, but were neither cleaved by Sumo-protease nor purified by RPC-HPLC.

[2] = molecular target: T1, MMP-2; test: MMP-2 cleavage of Sumo fusion proteins, SDS-PAGE; type: biochemical
Experimental: as §1

[3] = test system: Jurkat T-lymphocytic cells; test: Jurkat T-lymphocyte migration (chemotaxis) assay; type: cell-based; conditions: for EC50: Jurkat cells, 3 hours migration
Experimental: Jurkat cells were labeled with Calcein-AM (1 μM) for 60 minutes at 37° C., washed twice and resuspended in RPMI without phenol red to a final density of 4,000,000 cells/ml. […] Cells were allowed to migrate for 3 hours, and cells in lower wells were washed once with PBS. Fluorescence in lower wells was measured at 485 nm excitation and 535 nm emission wavelengths with a Victor Wallace II plate reader. A standard curve was constructed for each experiment to normalize fluorescence to the number of cells.

[4] = molecular target: T2, CXCR4 (Homo sapiens, UniProt P61073); test: CXCR4 β-arrestin recruitment assay (PathHunter); type: cell-based
Experimental: (§2) PathHunter β-arrestin assays were performed following the instructions of the manufacturer (DiscoveRx). Briefly, PathHunter cell lines stably expressing both a β-arrestin-Enzyme Acceptor of β-galactosidase fusion and one of the chemokine receptors fused with the ProLink donor peptide of […] were employed. Upon CXCR stimulation, β-arrestin is recruited to the receptor for desensitization, bringing the two fragments (the Enzyme Acceptor and the ProLink) of β-galactosidase together. This generates an active β-galactosidase enzyme that can convert a substrate to a chemiluminescent product. Cells were seeded at a density of 5000 cells/well in a 384-well plate and were allowed to adhere overnight. […] After incubation, chemiluminescent signal was generated through addition of 12.5 μl (50% v/v) of PathHunter Detection reagent cocktail (DiscoveRx) followed by a 1-hour incubation at room temperature. Microplates were read with a PerkinElmer ViewLux instrument.

[5] = molecular target: T2, CXCR4; test: CXCR4 cAMP receptor activation assay (CHO-K1 cells expressing CXCR4); type: cell-based; set-up: host or cells: CHO-K1; conditions: decrease in cAMP by Gαi activation, forskolin at EC80
Experimental: For the CXCR4 cAMP assay, CHO-K1 cells stably expressing the CXCR4 receptor (DiscoveRx, Fremont, Calif.) were seeded at a density of 10,000 cells/well in a 384-well plate and were allowed to recover overnight. A decrease in cAMP by CXCR4-induced Gαi activation was determined using the DiscoveRx HitHunter cAMP XS+assay following the manufacturer's protocol. […] Chemiluminescence was read with a PerkinElmer ViewLux instrument.

[6] = test system: ischemic hindlimb blood flow; test: Hindlimb ischemia model, laser Doppler blood flow; type: in vivo, C57BL/6 mice; conditions: without nanofibers
Experimental: All animal protocols were approved by the institutional IACUC and performed in an AAALAC certified facility. Studies were performed blinded and randomized. Hindlimb ischemia was produced in male C57BL/6 mice (305 mice total), 8 to 12 weeks old (Jackson Laboratories and Charles River Laboratories). Mice were anesthetized with isoflurane (2-3% in 100% oxygen) and buprenorphin (0.05 mg/kg). Femoral artery was ligated and excised below the inguinal ligament and above the bifurcation of the popliteal artery. Protein and self-assembling peptide nanofibers were injected in the lower hindlimb after excision of the artery. Peptides were dissolved in isotonic sucrose (10%). Post-operative analgesia was provided with buprenorphin (0.05 mg/kg every 6 to 12 hours for 72 hours). The surgeon was blinded to the treatment groups in all studies performed. The first study included 35 animals total (5 animals per group), which received an intramuscular injection in the lower hindlimb with biotin-labeled nanofibers (biotin-RAD, 0.01% in 1% nanofibers hydrogel). Tissues were harvested at seven different time points and nanofibers were stained with Alexa fluor-labeled streptavidin. The second study included 40 animals (10 per group) with four groups: control without injection, nanofibers only, nanofibers+100 nM SSDF-1-RAD, and nanofibers+100 nM SSDF-1(S4V)-RAD. Laser Doppler blood flow measurements were performed with a Moor LDI2-IR (Moor Instruments) 2, 4, and 6 weeks after surgery. At each time point, five measurements (on average) per animal were made, and blood flow in the ischemic limb was normalized to blood flow in normal limb. The third study included 50 animals with four different dosages of SSDF-1(S4V)-RAD; all groups contained nanofibers. All laser Doppler measurements and histology quantifications were made by an operator blinded to the treatment groups.

[7] = molecular target: CXCR7 (Homo sapiens, UniProt P25106); test: CXCR7 β-arrestin recruitment assay (PathHunter); type: cell-based
Experimental: as §2

[8] = fourth study, 1 mg/kg daily IM for first 7 days
[9] = separate confirming study, same doses and schedule

T2 sequence (P61073 whole entry, the tested form may be a part): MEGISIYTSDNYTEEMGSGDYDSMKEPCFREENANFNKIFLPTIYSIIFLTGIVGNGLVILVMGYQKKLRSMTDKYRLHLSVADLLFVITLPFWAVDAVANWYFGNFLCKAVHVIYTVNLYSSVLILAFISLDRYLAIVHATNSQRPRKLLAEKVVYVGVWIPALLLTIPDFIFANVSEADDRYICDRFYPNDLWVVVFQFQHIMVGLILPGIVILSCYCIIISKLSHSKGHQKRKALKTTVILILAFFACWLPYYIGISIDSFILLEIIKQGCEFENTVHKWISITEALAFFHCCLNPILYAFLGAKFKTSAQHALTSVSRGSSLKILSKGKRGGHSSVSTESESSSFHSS
Chain of CXCR7 (P25106 whole entry): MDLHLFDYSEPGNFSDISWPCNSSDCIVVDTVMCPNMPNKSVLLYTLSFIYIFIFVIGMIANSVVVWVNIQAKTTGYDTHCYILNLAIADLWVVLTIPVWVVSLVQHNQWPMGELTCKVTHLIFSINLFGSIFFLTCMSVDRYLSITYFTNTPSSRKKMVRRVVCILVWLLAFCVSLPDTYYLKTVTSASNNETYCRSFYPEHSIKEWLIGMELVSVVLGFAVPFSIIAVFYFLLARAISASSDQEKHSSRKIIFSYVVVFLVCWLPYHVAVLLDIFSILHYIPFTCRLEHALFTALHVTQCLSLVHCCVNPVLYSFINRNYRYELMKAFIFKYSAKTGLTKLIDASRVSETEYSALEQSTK

Substance | amount of peptide cleaved by MMP-2 [1] [pmol] | initial cleavage rate by MMP-2 [1] | EC50 [3] [nM] | blood flow differences between groups [6, 8] | blood flow differences between groups [6, 9] | other results
KPVSLSYR ({MCA}-KPVSLSYR-Dpn; listed as Homo sapiens) [SDF-1-N-terminal peptide, reference compound] | 205 ± 18 | 2.0±0.1×10^−10 M s^−1 | – | – | – | –
SDF-1(S4V)-N-terminal peptide: First 8 amino acids of SDF-1(S4V) (SEQ ID NO:91) with MCA at the N-terminus and quencher Dpn at the C-terminus ({MCA}-KPVVLSYR-Dpn) | 1 ± 3 | 0.1±0.1×10^−10 M s^−1 | – | – | – | –
SDF-1(S4V): SDF-1 with Ser→Val at position 4, SEQ ID NO:65 | – | – | – | – | – | rate of cleavage lower than SDF-1 [2]: at least 48 times
SSDF-1 (S4V): SDF-1(S4V) (SEQ ID NO:65) with a serine residue added at the N-terminus | – | – | 5.4 | No significant differences in blood flow | did not show significant differences between groups | activity in Jurkat cell migration assay ([3]; result in words): highest potency; EC50 [4]: 28 nM; EC50 [5]: 20 nM; average blood flow (ratio of ischemic to control limb) ([6]; four weeks, 4 administrations (d0, d1, d3, d5) of 1 mg/kg): 27.1±2.5%; blood flow differences between groups ([6]; third study, 0.1, 0.3, 1 and 3 mg/kg at d0, d1, d3, d5): No significant differences in blood flow; EC50 [7]: 37 nM
SSDF-1: SDF-1 with a serine residue added at the N-terminus | – | – | 1.6 | No significant differences in blood flow | did not show significant differences between groups | –
